Measured values: patent publication US8815830B2, “Nucleosides with antiviral and anticancer activity” (Regents of the University of Minnesota, priority 2004, dated 2014)

System: CCRF-CEM cells
Test: Test C: anti-cancer assay, CCRF-CEM cell viability by MTS reagent
Type: cell-based, human
Conditions: 48 hr incubation at 37° C., MTS reagent 4 hr, absorbance at 490 nm, triplicate
Method: The anti-cancer properties of the compounds of the invention can be evaluated using the following assay.
CCRF-CEM cells were grown in medium containing RPMI 1640 supplemented with 10% heat-inactivated fetal bovine serum, penicillin (124 units/ml of medium) and streptomycin (0.125 mg/ml of medium). A stock solution of […] was made using Trypan Blue Dye Exclusion Method as a means of counting the cells. The following concentrations of test compounds were made: 250, 200, 100, 10, 1, 0.1, 0.01 and 0.001 μM. The cell stock (50 μl, 5×10^4 cells) was incubated with 50 μl of each of the compounds in triplicate in a 96-well plate. The cells were incubated with the compound at 37° C. in a 10% CO2-90% air environment for 48 hr. A negative control was also done where the cells were incubated in drug-free medium.
Cell viability was determined by adding 20 μl of MTS reagent and incubating the cells for 4 hr after which the absorbance was found at 490 nm.

For Nc1ncnc2c1ncn2[C@@H]1O[C@H](CO)[C@@H](O)[C@@H]1O [Ara-A, 9-beta-D-arabinofuranosyladenosine], the IC50 was 384 ± 134 µM.
